We go through 19 compounds from article PMC6010143, “Synthesis of new pyridothienopyrimidinone derivatives as Pim-1 inhibitors” (Journal of Enzyme Inhibition and Medicinal Chemistry, 2017).

Like-named read-outs stand apart in the source and are kept apart here.

One data set relates to pim-1. The following applies: cited from earlier work.
The test system of another data set is pim-2. The following applies: Figure 1; cited from earlier work.
In another data set the target is T1, pim-1 kinase (Homo sapiens, UniProt P11309).
T1 construct: The kinase used was cloned, expressed and purified using proprietary methods
The data set is described as follows: Pim-1 kinase radioisotope (33P-ATP) assay, Kinexus compound profiling service. Type of data set: biochemical. The following applies: for pim-1 inhibition, in words: at 50 μM. On the procedure:
The kinase inhibitory activity of the synthesized compounds was determined using the Kinexus compound profiling service, Canada. All the compounds were tested for their inhibitory activity against pim-1 kinase at 50 μM. The kinase used was cloned, expressed and purified using proprietary methods. Quality control testing is routinely performed to ensure compliance to acceptable standards. ^33P-ATP was purchased from PerkinElmer. All other materials were of standard laboratory grade.
The protein kinase target profiling was executed via employing a radioisotope assay format. All the assays were performed in a prepared radioactive working area. The protein kinase profiling assays were performed at room temperature for 20–30 min in a final volume of 25 μL according to the following assay reaction components: Component 1; 5 μl of diluted active protein kinase (∼10–50 nM final concentration in the assay). Component 2; 5 μl of stock solution of substrate. Component 3; 5 μl of kinase assay buffer. Component 4; 5 μl of the test compound, Staurosporine at 1 μM or 10% DMSO.
The assay was initiated by the addition of ^33P-ATP, followed by incubation at ambient temperature for 30 min. The assay was then terminated by spotting 10 μL of the reaction mixture onto a Multiscreen phosphocellulose P81 plate. The Multiscreen phosphocellulose P81 plate was washed three times for approximately 15 min each in a 1% phosphoric acid solution. The radioactivity on the P81 plate was counted in the presence of scintillation fluid in a Trilux scintillation counter. Blank control was set up that included all the assay components except the addition of the appropriate substrate (replaced with equal volume of assay dilution buffer). The corrected activity for protein kinase target was determined by removing the blank control value.

Data set [1] concerns human breast adenocarcinoma (MCF7). The data set is described as follows: MTT cytotoxicity assay, MCF7. The following applies: for IC50: 72 h exposure, means of three experiments. Type of data set: cell-based. The method, then:
(§1) Cancer cells from different cancer cell lines were purchased from American type Cell Culture collection (ATCC, Manassas, VA). The cell lines used in this study were human breast adenocarcinoma (MCF7), human colon adenocarcinoma (HCT116) and human prostate cancer cells (PC3). The cell lines were grown on the appropriate growth medium Dulbecco's modified Eagle's medium (DMEM) or Roswell Park Memorial Institute medium (RPMI 1640) supplemented with […] of streptomycin, 100 units/mL of penicillin and 10% of heat-inactivated fetal bovine serum in a humidified, 5% (v/v) CO2 atmosphere at 37 °C.
(§2) Exponentially growing cells from different cancer cell lines were trypsinized, counted and seeded at the appropriate densities (2000–10 000 cells/0.33 cm^2 well) into 96-well microtiter plates. The cells were incubated in a humidified atmosphere at 37°C for 24 h. Then, the cells were exposed to different concentrations of compounds 6c, 7a, 7c, 7d, 8b and 9 (0.1, 10, 100 and 1000 μM) for 72 h. The viability of the treated cells was determined using MTT technique. The media were removed; cells were incubated with 200 μL of 5% MTT solution/well (Sigma Aldrich, St. Louis, MO) and were allowed to metabolize the dye into colored-insoluble formazan crystals for 2 h. The remaining MTT solution was discarded from the wells and the formazan crystals were dissolved in 200 μL/well-acidified isopropanol for 30 min, covered with aluminum foil and with continuous shaking using a MaxQ 2000 plate shaker (Thermo Fisher Scientific Inc, MI) at room temperature. The absorbance was measured at 570 nm using a Stat FaxR 4200 plate reader (Awareness Technology, Inc., Palm City, FL). […] The results are shown in Table 2 and represented graphically in Figure 5.
A general note: Formazan colour is commonly taken as a measure of viable cells.

For data set [2], the system named is human colon adenocarcinoma (HCT116). The data set can be described thus: MTT cytotoxicity assay, HCT116. The format is cell-based. The following applies: for IC50: 72 h exposure, means of three experiments. On the procedure: as §1, §2
For data set [3], the system named is human prostate cancer cells (PC3). The data set can be described thus: MTT cytotoxicity assay, PC3. The format is cell-based. The following applies: for IC50: 72 h exposure, means of three experiments. On the procedure: as §1, §2

T1 sequence (P11309 whole entry): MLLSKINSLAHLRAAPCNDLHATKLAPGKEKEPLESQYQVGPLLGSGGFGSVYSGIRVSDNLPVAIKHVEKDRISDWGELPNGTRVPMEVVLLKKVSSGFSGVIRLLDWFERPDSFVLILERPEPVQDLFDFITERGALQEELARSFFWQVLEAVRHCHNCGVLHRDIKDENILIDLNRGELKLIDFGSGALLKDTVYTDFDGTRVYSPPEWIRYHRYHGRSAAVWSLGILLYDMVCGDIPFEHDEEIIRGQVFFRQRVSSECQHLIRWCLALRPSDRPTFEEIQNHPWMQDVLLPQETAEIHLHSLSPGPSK

As for `O=C(O)c1ccc2c(c1)nc(Nc1cccc(Cl)c1)c1ccncc12` [CX-4595], the IC50 with pim-1 (Figure 1) is 0.048 µM; in the data set with pim-2 it was 0.186 µM.
`Cc1nc2sc(C(N)=O)c(N)c2c(C)c1Br` [Compound 4, 3-Amino-5-bromo-4,6-dimethylthieno[2,3-b]pyridine-2-carboxamide] came in with a melting point of 260 to 261 °C. On pim-1 kinase (test compounds at 50 μM), this compound gave an inhibition at 50 µM of 16%.
The compound `Cc1nc2sc3c(=O)[nH]cnc3c2c(C)c1Br` [Compound 5, 8-bromo-7,9-dimethylpyrido[3′,2′:4,5]thieno[3,2-d]pyrimidin-4(3H)-one] gave an inhibition at 50 µM on pim-1 kinase (test compounds at 50 μM) of 37%.
Turning to `Cc1nc2sc3c(=O)[nH]c(-c4ccccc4Cl)nc3c2c(C)c1Br` [Compound 6a, 8-Bromo-2-(2-chlorophenyl)-7,9-dimethylpyrido[3',2':4,5]thieno[3,2-d]pyrimidin-4(3H)-one], the melting point was > 300 °C. Further, the IC50 against pim-1 kinase is > 100 µM. This compound showed an inhibition at 50 µM against pim-1 kinase (test compounds at 50 μM) of 36%.
Compound `Cc1nc2sc3c(=O)[nH]c(-c4ccccc4F)nc3c2c(C)c1Br` [Compound 6b, 8-Bromo-2-(2-fluorophenyl)-7,9-dimethylpyrido[3',2':4,5]thieno[3,2-d]pyrimidin-4(3H)-one] yielded a melting point of 295 to 296 °C. Also, the “pim-1 inhibition, in words” value on pim-1 kinase is given as “moderate”. Moreover, the inhibition at 50 µM against pim-1 kinase (test compounds at 50 μM) stood at 61%.
In the case of `Cc1nc2sc3c(=O)[nH]c(-c4ccccc4O)nc3c2c(C)c1Br` [Compound 6c, 8-Bromo-2-(2-hydroxyphenyl)-7,9-dimethylpyrido[3',2':4,5]thieno[3,2-d]pyrimidin-4(3H)-one], the IC50 on pim-1 kinase amounted to 4.62 ± 0.039 µM; in data set [1] (Homo sapiens, MCF7, 72 h), 35.5 ± 1.3 µM; in data set [2] (Homo sapiens, HCT-116, 72 h), 63.3 ± 4.5 µM; in data set [3] (Homo sapiens, 72 h), 60.1 ± 4.65 µM. Moreover, 50 µM produced 85% inhibition on pim-1 kinase (test compounds at 50 μM). For the same compound, the “cytotoxic activity on MCF7, in words” value in data set [1] is given as “moderate”. Besides, the “cytotoxic activity on HCT116, in words” value in data set [2] is “moderate”. Also, the “cytotoxic activity on PC3, in words” value in data set [3] is “moderate”.
In turn, `Cc1nc2sc3c(=O)[nH]c(-c4ccccc4C(F)(F)F)nc3c2c(C)c1Br` [Compound 6d, 8-Bromo-7,9-dimethyl-2-[2-(trifluoromethyl)phenyl]pyrido[3',2':4,5]thieno[3,2-d]pyrimidin-4(3H)-one] returned a melting point of 255 to 256 °C. At pim-1 kinase, the “pim-1 inhibition, in words” value is “moderate”. This compound also displayed an inhibition at 50 µM at pim-1 kinase (test compounds at 50 μM) of 54%.
As to `Cc1nc2sc3c(c2c(C)c1Br)NC(c1ccccc1Cl)NC3=O` (centres unmarked) [Compound 7a, 8-Bromo-2-(2-chlorophenyl)-7,9-dimethyl-2,3-dihydropyrido[3',2':4,5]thieno[3,2-d]pyrimidin-4(1H)-one], the IC50 was 1.18 ± 0.14 µM against pim-1 kinase; 23.8 ± 0.4 µM in data set [1]; 18 to 38 µM in data set [1] (Homo sapiens, MCF7, 72 h); 18.3 ± 0.68 µM in data set [2]; 18 to 38 µM in data set [2] (Homo sapiens, HCT-116, 72 h); 24.2 ± 0.91 µM in data set [3]. The same compound returned a 50% inhibitory concentration (IC50) in data set [3] (Homo sapiens, 72 h) of 18 to 38 µM. At pim-1 kinase (test compounds at 50 μM), this compound came in with an inhibition at 50 µM of 81%.
Compound `Cc1nc2sc3c(c2c(C)c1Br)NC(c1ccccc1F)NC3=O` (centres unmarked) [Compound 7b, 8-Bromo-2-(2-fluorophenyl)-7,9-dimethyl-2,3-dihydropyrido[3',2':4,5]thieno[3,2-d]pyrimidin-4(1H)-one] returned a melting point of 292 to 293 °C. Further, on pim-1 kinase, the “pim-1 inhibition, in words” value is on record as “moderate”. This compound yielded an inhibition at 50 µM against pim-1 kinase (test compounds at 50 μM) of 66%.
As to `Cc1nc2sc3c(c2c(C)c1Br)NC(c1ccccc1O)NC3=O` (centres unmarked) [Compound 7c, 8-Bromo-2-(2-hydroxyphenyl)-7,9-dimethyl-2,3-dihydropyrido[3',2':4,5]thieno[3,2-d]pyrimidin-4(1H)-one], the IC50 was determined as 1.38 ± 0.025 µM on pim-1 kinase; 59.6 ± 1.2 µM in data set [1] (Homo sapiens, MCF7, 72 h); 181 ± 5.03 µM in data set [2] (Homo sapiens, HCT-116, 72 h); 58.2 ± 3.48 µM in data set [3] (Homo sapiens, 72 h). At pim-1 kinase (test compounds at 50 μM), this compound had an inhibition at 50 µM of 93%. Besides, the “cytotoxic activity on MCF7, in words” value in data set [1] is listed as “moderate”. In addition, the “cytotoxic activity on HCT116, in words” value in data set [2] is listed as “moderate”. The “cytotoxic activity on PC3, in words” value in data set [3] is reported as “moderate”.
For `Cc1nc2sc3c(c2c(C)c1Br)NC(c1ccccc1C(F)(F)F)NC3=O` (centres unmarked) [Compound 7d, 8-Bromo-7,9-dimethyl-2-[2-(trifluoromethyl)phenyl]-2,3-dihydropyrido[3',2':4,5]thieno[3,2-d]pyrimidin-4(1H)-one], the IC50 was 1.97 ± 0.022 µM against pim-1 kinase; 30.2 ± 0.8 µM in data set [1]; 18 to 38 µM in data set [1] (Homo sapiens, MCF7, 72 h); 30 ± 0.55 µM in data set [2]; 18 to 38 µM in data set [2] (Homo sapiens, HCT-116, 72 h). At pim-1 kinase (test compounds at 50 μM), this compound returned an inhibition at 50 µM of 98%.
Take `Cc1nc2c(sc3nc(C)c(Br)c(C)c32)c(=O)[nH]1` [Compound 8a, 8-Bromo-2,7,9-trimethylpyrido[3',2':4,5]thieno[3,2–d]pyrimidin-4(3H)-one]: the melting point was > 300 °C. Besides, the “pim-1 inhibition, in words” value at pim-1 kinase is listed as “moderate”. Also, the inhibition at 50 µM on pim-1 kinase (test compounds at 50 μM) amounted to 51%.
`Cc1nc2sc3c(=O)[nH]c(C(F)(F)F)nc3c2c(C)c1Br` [Compound 8b, 8-Bromo-7,9-dimethyl-2-(trifluoromethyl)pyrido[3',2':4,5]thieno[3,2-d]pyrimidin-4(3H)-one]: the IC50 on pim-1 kinase amounted to 8.83 ± 0.028 µM; in data set [1] (Homo sapiens, MCF7, 72 h) it was 28.6 ± 1 µM; in data set [2] (Homo sapiens, HCT-116, 72 h), 23.5 ± 0.53 µM; in data set [3] (Homo sapiens, 72 h), 59.9 ± 2.48 µM. Moreover, testing at 50 µM at pim-1 kinase (test compounds at 50 μM) gave an inhibition of 96%. The “cytotoxic activity on MCF7, in words” value in data set [1] is “potent”. Moreover, the “cytotoxic activity on HCT116, in words” value in data set [2] is “potent”. In addition, the “cytotoxic activity on PC3, in words” value in data set [3] was “moderate”.
Turning to `CCc1nc2c(sc3nc(C)c(Br)c(C)c32)c(=O)[nH]1` [Compound 8c, 8-Bromo-2-ethyl-7,9-dimethylpyrido[3',2':4,5]thieno[3,2-d]pyrimidin-4(3H)-one], the melting point was > 300 °C. The compound further returned an inhibition at 50 µM against pim-1 kinase (test compounds at 50 μM) of 23%. Moreover, at pim-1 kinase (test compounds at 50 μM, 50 µM), the “% Inhibition of pim-1 kinase” value was 17%.
Take `CC(=O)Cc1nc2c(sc3nc(C)c(Br)c(C)c32)c(=O)[nH]1` [Compound 9, 8-Bromo-7,9-dimethyl-2-(2-oxopropyl)pyrido[3',2':4,5]thieno[3,2-d]pyrimidin-4(3H)-one]: the IC50 worked out at 4.18 ± 0.076 µM against pim-1 kinase; 123 ± 12 µM in data set [1] (Homo sapiens, MCF7, 72 h); 151 ± 4.04 µM in data set [2] (Homo sapiens, HCT-116, 72 h); 183 ± 12.1 µM in data set [3] (Homo sapiens, 72 h). This compound gave an inhibition at 50 µM on pim-1 kinase (test compounds at 50 μM) of 89%. Besides, the “cytotoxic activity on MCF7, in words” value in data set [1] is listed as “weak”. Moreover, the “cytotoxic activity on HCT116, in words” value in data set [2] is reported as “weak”. The “cytotoxic activity on PC3, in words” value in data set [3] is “weak”.
As to `CCOC(=O)Cc1nc2c(sc3nc(C)c(Br)c(C)c32)c(=O)[nH]1` [Compound 10, Ethyl (8-bromo-7,9-dimethyl-4-oxo-3,4-dihydropyrido[3',2':4,5]thieno[3,2-d]pyrimidin-2-yl)acetate], the melting point is 277 to 278 °C. For the same compound, the “pim-1 inhibition, in words” value on pim-1 kinase is given as “poor”. Also, at 50 µM the inhibition on pim-1 kinase (test compounds at 50 μM) was 31%.
The matching figures for `Cc1nc2sc3c(=O)[nH]c(CC(=O)O)nc3c2c(C)c1Br` [Compound 11, (8-Bromo-7,9-dimethyl-4-oxo-3,4-dihydropyrido[3',2':4,5]thieno[3,2-d]pyrimidin-2-yl)acetic acid]: > 300 °C, “poor” and 19%.
With `CN[C@@H]1C[C@H]2O[C@@](C)([C@@H]1OC)n1c3ccccc3c3c4c(c5c6ccccc6n2c5c31)C(=O)NC4` [Staurosporine, reference compound], the inhibition at 1 µM on pim-1 kinase (read-out: % Inhibition of pim-1 kinase) is 93%.
Consider `COc1ccc(N2CCN(C(=O)c3sc4nc(C)c(Br)c(C)c4c3N)CC2)cc1` [V], for which the IC50 in the data set on pim-1 (Figure 2, earlier thieno[2,3-b]pyridine) is 12.7 µM.

In general, IC50 refers to the midpoint of a concentration-inhibition curve. What is called inhibition is the relative decrease from the control value, in per cent. In general, melting point refers to the temperature, or range, at which the solid turns liquid.
